Data published in ChEMBL document CHEMBL3046035, “Synthesis and biological evaluation of novel 4,5-dihydropyrazole derivatives as potent anticancer and antimicrobial agents” (Med Chem Res, 2013).
In brackets after ≈: the same amount, converted by molar mass.

Legend:
Aspergillus niger = assay: Antimicrobial activity against Aspergillus niger ATCC 6275 assessed as growth inhibition after 24 hr by broth microdilution method; assay type: functional; details: ATCC 6275, 24 h
Escherichia coli = assay: Antimicrobial activity against Escherichia coli ATCC 10536 assessed as growth inhibition after 24 hr by broth microdilution method; assay type: functional; details: ATCC 10536, 24 h
Pseudomonas aeruginosa = assay: Antimicrobial activity against Pseudomonas aeruginosa ATCC 10145 assessed as growth inhibition after 24 hr by broth microdilution method; assay type: functional; details: ATCC 10145, 24 h
Candida tropicalis = assay: Antimicrobial activity against Candida tropicalis ATCC 1369 assessed as growth inhibition after 24 hr by broth microdilution method; assay type: functional; details: ATCC 1369, 24 h
Staphylococcus aureus = assay: Antimicrobial activity against Staphylococcus aureus ATCC 11632 assessed as growth inhibition after 24 hr by broth microdilution method; assay type: functional; details: ATCC 11632, 24 h
Klebsiella pneumoniae = assay: Antimicrobial activity against Klebsiella pneumoniae ATCC 10031 assessed as growth inhibition after 24 hr by broth microdilution method; assay type: functional; details: ATCC 10031, 24 h
HeLa = assay: Anticancer activity against Homo sapiens (human) HeLa cells assessed as inhibition of cell viability after 96 hr by MTT assay; assay type: functional, cell-based
Saccharomyces cerevisiae = assay: Antimicrobial activity against Saccharomyces cerevisiae ATCC 9763 assessed as growth inhibition after 24 hr by broth microdilution method; assay type: functional; details: ATCC 9763, 24 h
BGC-823 = assay: Anticancer activity against Homo sapiens (human) BGC823 cells assessed as inhibition of cell viability after 96 hr by MTT assay; assay type: functional, cell-based; details: BGC-823, 96 h
A2780 = assay: Anticancer activity against Homo sapiens (human) A2780 cells assessed as inhibition of cell viability after 96 hr by MTT assay; assay type: functional, cell-based; details: A2780, 96 h
A549 = assay: Anticancer activity against Homo sapiens (human) A549 cells assessed as inhibition of cell viability after 96 hr by MTT assay; assay type: functional, cell-based; details: A549, 96 h
Enterococcus faecalis = assay: Antimicrobial activity against Enterococcus faecalis ATCC 14506 assessed as growth inhibition after 24 hr by broth microdilution method; assay type: functional; details: ATCC 14506, 24 h
Bacillus subtilis = assay: Antimicrobial activity against Bacillus subtilis ATCC 60511 assessed as growth inhibition after 24 hr by broth microdilution method; assay type: functional; details: ATCC 60511, 24 h
MCF7 = assay: Anticancer activity against Homo sapiens (human) MCF7 cells assessed as inhibition of cell viability after 96 hr by MTT assay; assay type: functional, cell-based; details: MCF7, 96 h

| Compound | MIC (Aspergillus niger) [µg/mL] | MIC (Escherichia coli) [µg/mL] | MIC (Pseudomonas aeruginosa) [µg/mL] | MIC (Candida tropicalis) [µg/mL] | MIC (Staphylococcus aureus) [µg/mL] | MIC (Klebsiella pneumoniae) [µg/mL] | IC50 (HeLa) [µM] | MIC (Saccharomyces cerevisiae) [µg/mL] | IC50 (BGC-823) [µM] | IC50 (A2780) [µM] | IC50 (A549) [µM] | MIC (Enterococcus faecalis) [µg/mL] | MIC (Bacillus subtilis) [µg/mL] | IC50 (MCF7) [µM] |
| --- | --- | --- | --- | --- | --- | --- | --- | --- | --- | --- | --- | --- | --- | --- |
| Cc1ccc(C2N=C(N3N=C(c4ccccc4)CC3c3c(F)cccc3F)S2)cc1 (stereo unspecified) | 62.5 (≈ 149 µM) | 8 (≈ 19.1 µM) | 4 (≈ 9.54 µM) | 125 (≈ 298 µM) | 16 (≈ 38.1 µM) | 4 (≈ 9.54 µM) | 6.59 | 62.5 (≈ 149 µM) | 3.22 | 5.14 | 4.21 | 8 (≈ 19.1 µM) | 16 (≈ 38.1 µM) | 3.23 |
| Fc1cccc(F)c1C1CC(c2ccccc2)=NN1c1nc(-c2ccccc2)cs1 (stereo unspecified) | 125 (≈ 299 µM) | 31.2 (≈ 74.9 µM) | 62.5 (≈ 150 µM) | 125 (≈ 299 µM) | 31.2 (≈ 74.9 µM) | 62.5 (≈ 150 µM) | 5.91 | 62.5 (≈ 150 µM) | 2.01 | 3.09 | 3.01 | 8 (≈ 19.2 µM) | 8 (≈ 19.2 µM) | 2.23 |
| CCn1cc(C(=O)O)c(=O)c2cc(F)c(N3CCNCC3)cc21 [NORFLOXACIN] |  | ≤ 1 | 5 (≈ 15.7 µM) |  | 5 (≈ 15.7 µM) | ≤ 1 |  |  |  |  |  | 5 (≈ 15.7 µM) | ≤ 1 |  |
| Cc1ccc(-c2csc(N3N=C(c4ccccc4)CC3c3c(F)cccc3F)n2)cc1 (stereo unspecified) | 62.5 (≈ 145 µM) | 8 (≈ 18.5 µM) | 8 (≈ 18.5 µM) | 125 (≈ 290 µM) | 4 (≈ 9.27 µM) | 4 (≈ 9.27 µM) | 4.86 | 62.5 (≈ 145 µM) | 1.2 | 3.03 | 1.21 | 8 (≈ 18.5 µM) | 4 (≈ 9.27 µM) | 2.5 |
| Fc1cccc(F)c1C1CC(c2ccccc2)=NN1c1nc(-c2ccc(Br)cc2)cs1 (stereo unspecified) | 62.5 (≈ 126 µM) | 31.2 (≈ 63 µM) | 31.2 (≈ 63 µM) | 62.5 (≈ 126 µM) | 16 (≈ 32.2 µM) | 16 (≈ 32.2 µM) | 6.12 | 62.5 (≈ 126 µM) | 1.34 | 2.45 | 1.93 | 8 (≈ 16.1 µM) | 8 (≈ 16.1 µM) | 2.14 |
| O=C(Cc1csc(N2N=C(c3ccccc3)CC2c2c(F)cccc2F)n1)N/N=C/c1c(F)cccc1F (stereo unspecified) | 16 (≈ 29.8 µM) | 4 (≈ 7.44 µM) | 8 (≈ 14.9 µM) | 4 (≈ 7.44 µM) | 16 (≈ 29.8 µM) | 8 (≈ 14.9 µM) | 4.23 | 16 (≈ 29.8 µM) | 1.32 | 2.54 | 0.96 | 16 (≈ 29.8 µM) | 62.5 (≈ 116 µM) | 1.2 |
| CCOC(=O)Cc1csc(N2N=C(c3ccccc3)CC2c2c(F)cccc2F)n1 (stereo unspecified) | 62.5 (≈ 146 µM) | 8 (≈ 18.7 µM) | 8 (≈ 18.7 µM) | 31.2 (≈ 73.1 µM) | 16 (≈ 37.4 µM) | 8 (≈ 18.7 µM) | 6.31 | 62.5 (≈ 146 µM) | 3.85 | 3.91 | 4.18 | 31.2 (≈ 73.1 µM) | 31.2 (≈ 73.1 µM) | 2.11 |
| OC(Cn1cncn1)(Cn1cncn1)c1ccc(F)cc1F [FLUCONAZOLE] | ≤ 1 |  |  | ≤ 1 |  |  |  | ≤ 1 |  |  |  |  |  |  |
| O=C(/C=C/c1c(F)cccc1F)c1ccccc1 | 62.5 (≈ 256 µM) | 125 (≈ 512 µM) | 8 (≈ 32.8 µM) | 62.5 (≈ 256 µM) | 31.2 (≈ 128 µM) | 125 (≈ 512 µM) |  | 62.5 (≈ 256 µM) |  |  |  | 125 (≈ 512 µM) | 125 (≈ 512 µM) |  |
| Fc1cccc(F)c1C1CC(c2ccccc2)=NN1C1=NC(c2ccc(Cl)cc2)S1 (stereo unspecified) | 8 (≈ 18.2 µM) | 8 (≈ 18.2 µM) | 62.5 (≈ 142 µM) | 8 (≈ 18.2 µM) | 31.2 (≈ 71 µM) | 16 (≈ 36.4 µM) | 4.94 | 4 (≈ 9.09 µM) | 1.41 | 2.72 | 1.56 | 125 (≈ 284 µM) | 31.2 (≈ 71 µM) | 1.69 |
| O=C(O)c1cn(C2CC2)c2cc(N3CCNCC3)c(F)cc2c1=O [CIPROFLOXACIN] |  | ≤ 1 | 5 (≈ 15.1 µM) |  | ≤ 5 | ≤ 1 |  |  |  |  |  | ≤ 5 | ≤ 1 |  |
| NC(=S)N1N=C(c2ccccc2)CC1c1c(F)cccc1F (stereo unspecified) | 62.5 (≈ 197 µM) | 62.5 (≈ 197 µM) | 31.2 (≈ 98.5 µM) | 31.2 (≈ 98.5 µM) | 31.2 (≈ 98.5 µM) | 62.5 (≈ 197 µM) | 6.25 | 125 (≈ 394 µM) | 1.84 | 3.62 | 2.55 | 31.2 (≈ 98.5 µM) | 8 (≈ 25.2 µM) | 2.15 |
